Tests used:
[1] = target: LmajNT1; assay: [3H]-uridine uptake by L. major promastigotes, low-affinity component; assay type: cell-based, Leishmania major; conditions: inhibition of 0.25 μM [3H]-uridine uptake
Method: (§1) Using the standard uptake technique as described for T. brucei and Leishmania species ([Wallace et al., 2002], [Al-Salabi and De Koning, 2005], [Gudin et al., 2006]), the dose- or time-dependent uptake of radiolabeled permeants was investigated.
(§2) Briefly, cells in the mid-to-late logarithmic stage of growth were harvested by centrifugation for 10 min at 1500×g. The cells were washed twice with transport assay buffer (AB: 33 mM HEPES, 98 mM NaCl, 4.6 mM KCl, 0.55 mM CaCl2, 0.07 mM MgSO4, 5.8 mM NaH2PO4, 0.3 mM MgCl2, 23 mM NaHCO3, 14 mM glucose, pH 7.3), resuspended at a density of 10^8 cells ml^−1 in AB, and left for 20–30 min at room temperature to recover from centrifugation stress. One hundred microliters of cell suspension was incubated at ambient temperature for a predetermined time with 100 μl radiolabeled test compound, in the presence or absence of unlabeled substrate or other competitive inhibitors. The incubation was terminated by the addition of ice-cold stop solution (AB containing saturating levels, usually 10 mM, of unlabeled permeant) and centrifugation through oil for 1 min at 13,000 × g. […] Radioactivity was determined by liquid scintillation counting in a Beckman LS6000 TA scintillation counter. Saturation data, inhibition data, and time courses were plotted to equations for linear or non-linear regression (hyperbolic or sigmoid curves), as appropriate. All experiments were performed in triplicate and on at least three independent occasions.

[2] = target: LmajNT1; assay: [3H]-thymidine uptake by L. major promastigotes; assay type: cell-based, Leishmania major
Method: as §1, §2
Subsequent experiments were performed with a 5 min incubation time.

[3] = target: LmexUU1; assay type: cell-based, Leishmania mexicana
Method: as §1, §2

[4] = target: LmajUUT1; assay: [3H]-uridine uptake by L. major promastigotes, high-affinity uracil-sensitive component; assay type: cell-based, Leishmania major; conditions: inhibition of 0.25 μM [3H]-uridine uptake
Method: as §1, §2

[5] = tested on: L. major promastigotes WT; assay: Alamar blue drug sensitivity assay, L. major WT; assay type: cell-based, Leishmania major; conditions: Leishmania major, 72 h, WT promastigotes, 72 h + 48 h with dye; n ≥ 4; read-out: EC50
Method: (§3) Sensitivity assays of Leishmania strains to various drugs using the viability dye resazurin (Alamar Blue) (Sigma-Aldrich) were performed using a protocol adapted from [Räz et al. (1997)], as described ([Al-Salabi et al., 2003], [Gould et al., 2008]). Pentamidine and diminazene were used as non-nucleoside controls and were obtained from Sigma-Aldrich, as were many purines, pyrimidines, and analogs, with the exceptions of 2-thiouridine and 4-thiouridine (TriLink BioTechnologies, San Diego, CA); 5′-deoxyuridine, and 2′-3′-dideoxyuridine (Carbosynth, Compton, UK); 5-fluoro-2′-deoxyuridine (Fluka); and 2-thiouracil (ICN Biomedicals, Cambridge, UK). A preliminary promastigote culture was diluted to a density of 2 × 10^6 cells/ml, of which 100 μl was added to wells of 96-well plates pre-loaded with 100 μl of doubling dilutions of test compounds, resulting in a final density of 1 × 10^6 cells/ml; the dilutions were over 2 rows of the plate (23 concentrations), with the last well containing only medium and serving as the no-drug control. The plates were incubated at 25 °C for 72 h before adding the Alamar Blue dye (20 μl of 12.5 mg resazurin sodium salt (Sigma) in 100 ml phosphate buffered saline (PBS; pH 7.4)). Since Leishmania parasites metabolize the Alamar Blue dye slower than trypanosomes ([Gould et al., 2008]), the cells were incubated with the dye for a further period of 48 h before measuring the fluorescence, using a FLUOstar Optima fluorimeter (BMG Labtech) at wavelengths of 544 nm for excitation and 620 nm for emission. […] Each experiment was performed independently at least 4 times; statistical significance was determined using Student's unpaired t-test.

[6] = tested on: Lmaj5FURes; assay: microbe, parasite or virus in culture; assay type: cell-based, Leishmania major
Method: as §3

[7] = tested on: Lmaj5F2′dURes; assay: microbe, parasite or virus in culture; assay type: cell-based, Leishmania major
Method: as §3

[8] = target: LmexNT1; assay type: cell-based, Leishmania mexicana; conditions: inhibition of 0.25 μM [3H]-uridine uptake in the presence of 1 mM uracil
Method: as §1, §2

[9] = tested on: Lmex5F2′dURes; assay: microbe, parasite or virus in culture; assay type: cell-based, Leishmania mexicana
Method: as §3

[10] = tested on: Lmex5FURes; assay: microbe, parasite or virus in culture; assay type: cell-based, Leishmania mexicana
Method: as §3

[11] = tested on: L. mexicana promastigotes WT; assay: Alamar blue drug sensitivity assay, L. mexicana WT; assay type: cell-based, Leishmania mexicana; conditions: Leishmania mexicana, 72 h, WT promastigotes, 72 h + 48 h with dye; n ≥ 4; read-out: EC50
Method: as §3

[12] = tested on: L. major promastigotes; assay: metabolomic analysis of treated L. major promastigotes; assay type: cell-based, Leishmania major; conditions: 100 μM, 8 h
Method: (§4) Metabolomics analysis of the Leishmania promastigotes was undertaken in triplicate, exactly as described ([Ali et al., 2013a]). Briefly, cells were grown to log phase stage, resuspended at 2 × 10^6 cells/ml in 50 ml HOMEM/FBS and incubated 8 h with 100 μM of test compound (standard conditions) before transfer to a 50-ml centrifuge tube for instantaneous cooling (dry ice/ethanol bath, 4 °C) and centrifugation (2500 rpm, 10 min, 4 °C). The pellet was lysed with 200 μl of chloroform/methanol/water (1:3:1 v/v/v) containing mass spectrometry standards, and vigorous mixing (1 h, 4 °C); cell debris was removed by centrifugation and the metabolite extracts were stored in HPLC vials at −80 °C. Control samples were prepared in parallel and included untreated cells, unused growth medium, test compound solution and extraction solvent blanks. The analysis used a hydrophilic interaction liquid chromatography (HILIC-LC) fitted with a zwitterionic ZIC-pHILIC column (Merck Sequant), coupled to high resolution mass spectrometry (MS) using a Thermo Q-Exactive, and metabolomic data outputs were analyzed using the IDEOM application (http://mzmatch.sourceforge.net/ideom.php) with default parameters ([Creek et al., 2012]) exactly as described ([Ali et al., 2013a]). The lower limit of detection was set to 500 intensity units for all reported metabolites, in order to prevent spurious identification of low level signals.
(§5) The mechanism of action of the fluorinated pyrimidines was investigated using a metabolomics approach, where promastigotes of L. mexicana and L. major were incubated for 8 h with 100 μM of either 5-FU, 5F-2′dUrd or 5F-Urd prior to metabolite extraction and mass spectrometric analysis as described ([Ali et al., 2013a], [Alkhaldi et al., 2015]). These conditions were chosen to allow for significant metabolite accumulation while not affecting cell viability or growth rate, which could broadly affect metabolite levels.

[13] = tested on: L. mexicana promastigotes; assay: metabolomic analysis of treated L. mexicana promastigotes; assay type: cell-based, Leishmania mexicana; conditions: 100 μM, 8 h
Method: as §4, §5

[14] = n = 3, SEM, untreated: not detected (<500)

`O=c1ccn([C@H]2C[C@H](O)[C@@H](CO)O2)c(=O)[nH]1` [2′-deoxyuridine] was tested, and the Ki [1] was 24.9 ± 8.6 µM, the Ki ([2]; inhibition of 0.25 μM [3H]-thymidine uptake (total LmajNT1.1 + LmajNT1.2), 5 min) was 112 ± 17 µM and the Ki ([3]; inhibition of [3H]-uracil uptake, 4 min) was 9.3 ± 2.6 µM. The “maximal inhibition of [3H]-uracil transport” value ([3]; n = 3) was “approximately 85%” and the Ki [4] was 24.9 ± 8.6 µM.

In the case of `O=c1[nH]c(=O)n([C@H]2C[C@H](O)[C@@H](CO)O2)cc1F` [5F-2′dUrd, 5-Fluoro-2′-deoxyuridine], the Ki [2] is reported as 29.7 ± 2.1 µM, the EC50 [5] is reported as roughly 1.5 µM and the EC50 ([6]; Leishmania major) is reported as 6.1 ± 0.5 µM. The “RF (Resistance Factor = IC50 (resistant clone)/IC50 (WT))” value (from here on “RF”) ([6]; Lmaj5FURes vs L. major WT) was 3.6, the EC50 ([7]; Leishmania major) was 381 ± 83 µM and the “RF” value ([7]; Lmaj5F2′dURes vs L. major WT) was 224. The Ki [8] was 6.99 ± 0.11 µM, the EC50 ([9]; Leishmania mexicana) was greater than 5000 µM and the “RF” value ([9]; Lmex5F2′dURes vs L. mexicana WT) was greater than 3500. For the same compound, the EC50 ([10]; Leishmania mexicana) was 1.5 ± 0.2 µM, the “RF” value ([10]; Lmex5FURes vs L. mexicana WT) was 1.07 and the EC50 [11] was roughly 1.5 µM. For the same compound, the dCMP peak intensity [12, 14] was “not detected”, the dUrd peak intensity ([12]; untreated: 712 ± 105) was 7615 ± 1236^∗ arbitrary units and the dCTP peak intensity ([12]; untreated: 995 ± 109) was 7036 ± 1684 arbitrary units. For the same compound, the dAdo peak intensity ([12]; untreated: 2992 ± 173) was 14181 ± 3275 arbitrary units, the dAMP peak intensity ([12]; untreated: 6192 ± 910) was 14740 ± 2815 arbitrary units and the dADP peak intensity ([12]; untreated: not detected) was 6493 ± 3261 arbitrary units. The dCDP peak intensity ([12]; untreated: not detected) was 6617 ± 188^∗∗∗ arbitrary units, the dTTP intensity ([13]; detection limit 500 units (Fig. 13F)) was “Not detectable” and the dCMP peak intensity [13, 14] was 6006 ± 3089 arbitrary units. The dUrd peak intensity ([13]; untreated: 304 ± 155) was 5414 ± 717^∗ arbitrary units, the dADP peak intensity ([13]; untreated: 1458) was 8367 ± 1844^∗ arbitrary units and the dAdo peak intensity ([13]; untreated: 2585 ± 811) was 5412 ± 1699 arbitrary units. For the same compound, the dCDP peak intensity ([13]; untreated: not detected) was 4451 ± 1188^∗ arbitrary units and the dCTP peak intensity ([13]; untreated: not detected) was 1569 ± 244 arbitrary units.
